Literature values as cited in US20070249572A1, “Systems and methods for the delivery of corticosteroids” (Verus Pharmaceuticals, Inc., priority 2005, published 2007).

Question: Which solubility in alcohols (alcohols) does the source give for `CCCC1O[C@@H]2C[C@H]3[C@@H]4CCC5=CC(=O)C=C[C@]5(C)[C@H]4[C@@H](O)C[C@]3(C)[C@]2(C(=O)CO)O1` (stereo partly drawn) [budesonide, (R,S)-llβ,16α,17,21-tetrahydroxypregna-1,4-diene-3,20-dione cyclic 16,17-acetal with butyraldehyde] here?
Answer: Its solubility in alcohols is “readily soluble in alcohols”.

Question: What about the solubility in water (water) of the same compound?
Answer: The solubility in water was “virtually insoluble in water”.
